pKi: −log10 of the molar value.
How the values were obtained:
Homo sapiens [1] = organism: Homo sapiens; test: Concentration required to double the human alpha-thrombin induced clotting time of human plasma; type: functional
Homo sapiens [2] = organism: Homo sapiens; test: Concentration required to double the activated partial thromboplastin time of human plasma was measured; type: functional
Prothrombin = Prothrombin (Homo sapiens, UniProt P00734); test: In vitro inhibitory activity against thrombin
Coagulation factor X = Coagulation factor X (Homo sapiens, UniProt P00742); test: In vitro inhibitory activity against Coagulation factor X
Kallikrein-1 = Kallikrein-1 (Homo sapiens, UniProt P06870); test: In vitro inhibitory activity against Kallikrein
Plasminogen = Plasminogen (Rattus norvegicus, UniProt Q01177); test: In vitro inhibitory activity against plasmin
[3] = target: Urokinase-type plasminogen activator (Homo sapiens, UniProt P00749); test: In vitro inhibitory activity against Urokinase-type plasminogen activator

Sequence of Coagulation factor X (P00742 41-179 limits assumed): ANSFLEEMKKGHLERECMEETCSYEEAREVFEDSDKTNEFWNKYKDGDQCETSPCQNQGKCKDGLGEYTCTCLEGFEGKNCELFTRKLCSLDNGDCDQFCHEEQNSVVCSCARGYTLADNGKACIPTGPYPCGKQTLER
Sequence of Coagulation factor X (P00742 235-488 limits assumed): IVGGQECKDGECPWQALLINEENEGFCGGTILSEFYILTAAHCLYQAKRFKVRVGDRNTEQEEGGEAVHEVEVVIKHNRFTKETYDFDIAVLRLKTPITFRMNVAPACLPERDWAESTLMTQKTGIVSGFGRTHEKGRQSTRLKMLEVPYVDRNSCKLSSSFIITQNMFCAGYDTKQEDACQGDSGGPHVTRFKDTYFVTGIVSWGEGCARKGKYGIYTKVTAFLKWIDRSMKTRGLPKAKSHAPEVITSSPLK
Sequence of Plasminogen (Q01177 97-581 limits assumed): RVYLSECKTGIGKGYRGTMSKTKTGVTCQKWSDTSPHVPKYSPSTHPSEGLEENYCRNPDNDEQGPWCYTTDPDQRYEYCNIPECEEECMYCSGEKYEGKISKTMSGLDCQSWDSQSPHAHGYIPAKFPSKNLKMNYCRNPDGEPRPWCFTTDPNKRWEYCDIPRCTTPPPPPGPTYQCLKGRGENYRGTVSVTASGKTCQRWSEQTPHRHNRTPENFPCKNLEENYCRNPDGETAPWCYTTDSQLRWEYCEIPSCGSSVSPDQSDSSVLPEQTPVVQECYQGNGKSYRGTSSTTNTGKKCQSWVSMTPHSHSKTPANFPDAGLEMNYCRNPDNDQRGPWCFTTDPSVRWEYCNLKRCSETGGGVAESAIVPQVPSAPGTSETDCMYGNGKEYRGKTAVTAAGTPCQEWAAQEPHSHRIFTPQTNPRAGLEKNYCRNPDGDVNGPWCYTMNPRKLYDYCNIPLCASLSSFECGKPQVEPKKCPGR
Sequence of Plasminogen (Q01177 582-812 limits assumed): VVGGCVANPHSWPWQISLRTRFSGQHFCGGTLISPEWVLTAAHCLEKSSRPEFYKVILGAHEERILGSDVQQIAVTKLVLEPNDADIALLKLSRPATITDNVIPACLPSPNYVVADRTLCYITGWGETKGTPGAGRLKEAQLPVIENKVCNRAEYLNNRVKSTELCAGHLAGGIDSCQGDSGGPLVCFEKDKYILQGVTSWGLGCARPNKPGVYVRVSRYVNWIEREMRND
Sequence of Kallikrein-1 (P06870 whole entry): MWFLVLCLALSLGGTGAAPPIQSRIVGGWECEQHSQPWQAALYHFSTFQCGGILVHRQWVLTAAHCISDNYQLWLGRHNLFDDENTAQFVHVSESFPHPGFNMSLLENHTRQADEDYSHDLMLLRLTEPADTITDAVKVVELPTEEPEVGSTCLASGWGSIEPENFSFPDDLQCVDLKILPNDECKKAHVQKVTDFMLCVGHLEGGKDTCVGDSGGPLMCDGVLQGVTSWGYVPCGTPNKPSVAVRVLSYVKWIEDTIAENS

Row | SMILES | TT (Homo sapiens [1]) | APTT (Homo sapiens [2]) | pKi (Prothrombin) | pKi (Coagulation factor X) | pKi (Kallikrein-1) | pKi (Plasminogen) | pKi [3]
1 | NC(N)=NCCCC(NC(=O)[C@@H]1CCCN1C(=O)[C@@H](N)C(c1ccccc1)c1ccccc1)C(=O)CCC(=O)N1CCCCC1.O=C(O)C(F)(F)F.O=C(O)C(F)(F)F (stereo partly specified) | 7.5 µM | 100 µM | 5.77 | – | – | – | –
2 | NC(N)=NCCCC(NC(=O)[C@@H]1CCCN1C(=O)C(N)C(c1ccccc1)c1ccccc1)C(=O)CCC(=O)N1CCCCC1.O=C(O)C(F)(F)F.O=C(O)C(F)(F)F (stereo partly specified) | – | 45 µM | 6.22 | – | – | – | –
3 | NC(N)=NCCCC(NC(=O)[C@@H]1CCCN1C(=O)[C@H](N)Cc1ccc2ccccc2c1)C(=O)CCC(=O)N1CCCCC1 (stereo partly specified) | – | – | 5.64 | – | – | – | –
4 | NC(N)=NCCCC(NC(=O)[C@@H]1CCCN1C(=O)[C@H](N)C(c1ccccc1)c1ccccc1)C(=O)CCC(=O)N1CCCCC1.O=C(O)C(F)(F)F.O=C(O)C(F)(F)F (stereo partly specified) | 0.65 µM | 8 µM | 6.70 | 3.83 | 3.70 | 3.80 | 3.31
5 | NC(N)=NCCCC(NC(=O)[C@@H]1CCCN1C(=O)C(N)Cc1ccc2ccccc2c1)C(=O)CCC(=O)N1CCCCC1.O=C(O)C(F)(F)F.O=C(O)C(F)(F)F (stereo partly specified) | 90 µM | – | 4.94 | – | – | – | –
6 | NC(N)=NCCCC(NC(=O)[C@@H]1CCCN1C(=O)[C@H](N)Cc1ccccc1)C(=O)CCC(=O)N1CCCCC1 (stereo partly specified) | 4.9 µM | – | – | – | – | – | –
